In article doi:10.1101/2020.02.07.939504v1 (biorxiv, 2020):
Like-named read-outs stand apart in the source and are kept apart here.

Assays:
iAChSnFR (iAChSnFR0.9) = conditions: 200 nM soluble purified sensor
X513-OpuBC = assay: isothermal titration calorimetry; assay type: binding, Thermoanaerobacter sp. X513; conditions: 25 °C, PBS, single experiment
iAChSnFR0.4 = assay: fluorescence titration of purified sensor; assay type: binding, Thermoanaerobacter sp.; conditions: read-out: apparent Kd; 200 nM purified sensor
y-iAChSnFR = conditions: 200 nM purified sensor

NCCc1c[nH]c2ccc(O)cc12 [serotonin]
Kd (iAChSnFR (iAChSnFR0.9); read-out: affinity): > 1000 µM

CC(=O)OCC[N+](C)(C)C [acetylcholine]
Kd (X513-OpuBC; fit with fixed N = 1): 95 µM | Kd (iAChSnFR0.4): 220 ± 16 µM | Kd (iAChSnFR (iAChSnFR0.9); read-out: apparent Kd): 1.3 ± 1 µM | Kd (y-iAChSnFR): 0.5 µM

C[N+](C)(C)CCO [choline]
Kd (X513-OpuBC; variable stoichiometry fit, N = 0.55): 8 µM | Kd (iAChSnFR (iAChSnFR0.9); read-out: apparent Kd): 45 ± 1.1 µM | Kd (y-iAChSnFR): 20 µM
